Experimental data reported in paper PMC5607274, “An iterative compound screening contest method for identifying target protein inhibitors using the tyrosine-protein kinase Yes” (Scientific Reports, 2017).

Target: T1, human recombinant Yes [a.a. 2–543 (end)] (Homo sapiens, UniProt P07947)
T1 construct: human recombinant Yes [a.a; 2–543 (end)]; purchased BPS Bioscience 40488
Assay: ADP-Glo kinase assay, inhibition rates of Yes phosphorylation activity (first and second screening)
Assay type: biochemical
Details: first screening; mean of n = 4 wells; 10 μmol L−1 compound
In short: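 Hits from a first pass were rescreened after re-dissolution from fresh powder. The first pass reported the mean inhibition rate of quadruplicate wells per compound. Activity was that of recombinant human Yes [a.a. 2–543] kinase, read out with the ADP-Glo ADP-detection method.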

T1 sequence (P07947 2-543): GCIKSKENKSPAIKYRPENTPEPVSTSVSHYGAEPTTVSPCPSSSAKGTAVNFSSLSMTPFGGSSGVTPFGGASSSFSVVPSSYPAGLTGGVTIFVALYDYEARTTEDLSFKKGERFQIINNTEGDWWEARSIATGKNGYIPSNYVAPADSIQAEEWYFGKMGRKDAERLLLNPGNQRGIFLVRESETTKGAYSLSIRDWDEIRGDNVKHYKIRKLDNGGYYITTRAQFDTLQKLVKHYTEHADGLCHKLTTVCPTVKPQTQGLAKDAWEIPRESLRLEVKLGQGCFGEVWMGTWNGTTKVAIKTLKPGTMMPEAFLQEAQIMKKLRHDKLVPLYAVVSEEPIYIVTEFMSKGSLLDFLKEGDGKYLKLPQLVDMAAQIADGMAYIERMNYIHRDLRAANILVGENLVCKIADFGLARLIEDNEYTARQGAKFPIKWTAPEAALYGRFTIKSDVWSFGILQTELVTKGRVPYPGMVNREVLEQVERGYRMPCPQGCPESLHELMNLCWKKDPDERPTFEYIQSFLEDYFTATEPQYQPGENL

First screening IR (inhibition rate) [%]	SMILES
25	O=C1Nc2ccccc2/C1=C\c1ccc(O)cc1 [Compound Z44305789]
1	CC(=O)NC12CC3CC(C1)CC(C(=O)Oc1ccc(N(C)S(=O)(=O)c4cc(C)ccc4C)cc1)(C3)C2 [Compound Z29631809]
0	O=C(CCCC1CCCCC1)Nc1ccc(-c2cnc[nH]2)cc1 [Compound Z91026356]
3	O=C(COc1ccccc1F)NCc1ccc2[nH]c(=O)[nH]c2c1 [Compound Z1654002148]
-38	Cn1ncc2c(NCCOc3ccc4c(c3)OCO4)ncnc21 [Compound Z645593692]
15	O=S(=O)(c1ccccc1Cl)N1CCN(Cc2cn3ccccc3n2)CC1 [Compound Z89155296]
13	Cc1nc2ccc(NC(=O)c3cc4ccccc4oc3=O)cc2s1 [Compound Z28296849]
10	CC(C)N(c1ccccc1)c1ccc(NC(=O)COC(=O)c2c3c(nc4ccccc24)CCCC3)cc1 [Compound Z19690670]
51	O=C(Nc1ccc2nc(-c3ccco3)[nH]c2c1)c1ccc(Cl)nc1 [Compound Z757780044]
46	COCCNC(=O)/C(=C\c1ccc(-c2cccc(Cl)c2)o1)NC(=O)c1ccc(OC)cc1 [Compound Z57239420]
10	O=C(OCc1noc(C2CC2)n1)c1c[nH]cc1-c1ccc(Cl)s1 [Compound Z847574324]
23	O=C(Oc1cccnc1Br)c1nn(-c2ccccc2)c(=O)c2ccccc12 [Compound Z817738176]
15	COC(=O)c1ccc(COc2ccc(/C=C3/CC(C(C)(C)C)Cc4c3nc3ccccc3c4C(=O)O)cc2OC)cc1 (stereo not shown) [Compound Z46108841]
3	Cc1cccc(C)c1Nc1nnc(SCC(=O)NC(Cc2c[nH]c3ccccc23)C(=O)O)s1 (stereo not shown) [Compound Z20162836]
43	Cc1cc(Br)ccc1SCC(=O)OC/C(O)=C(\C#N)c1nc2ccccc2[nH]1 [Compound Z18738204]
-2	Cc1nn(CCC#N)c2nc(-c3cccnc3)cc(C(F)(F)F)c12 [Compound Z55426831]
44	N#Cc1ccc(NC(=O)c2ccn(-c3ccc(F)cc3)n2)cc1 [Compound Z381174904]
0	NC(=O)C(Nc1cnn(Cc2ccccc2)c1)c1ccc(F)cc1 (stereo not shown) [Compound Z1686719326]
1	Fc1ccccc1-n1c(SCc2cccnc2)nnc1-c1ccccc1Cl [Compound Z316264326]
45	COc1ccc(CN2CCN(Cc3c(-c4ccccc4)nc4ccccn34)CC2)cc1OC [Compound Z89207636]
9	CN(C)c1nc(N)nc(CSCCOc2ccccc2F)n1 [Compound Z197453168]
6	CCCN(Cc1cccnc1OC)C1CCN(C(=O)c2ccccc2)CC1 [Compound Z1415907924]
-1	COc1ccc(-c2c(C#N)c(=O)[nH]c3c2c(C)nn3-c2ccccc2)cc1OC [Compound Z1007027518]
-14	Cc1ccnc(NC(=O)c2cc(-c3ccc(F)cc3)nc3onc(C)c23)c1 [Compound Z219812624]
15	Cc1cccc(C)c1N=C1SC(C(=O)Nc2ccc(OC(F)F)cc2)C(N)=C1C(=O)N1CCN(C)CC1 (stereo not shown) [Compound Z56863426]
13	O=C(c1cccn1Cc1ccncc1)N1CCOC(c2ccc(F)cc2)C1 (stereo not shown) [Compound Z998371530]

First screening IR (inhibition rate) [%]	SMILES
-1	O=C(CCc1nnc2n(Cc3ccc(Cl)cc3)c(=O)c3ccccc3n12)NCCCN1CCOCC1 [Compound Z1157834172]
1	COc1cc(/C=C/C(=O)c2ccc3c(c2)NC(=O)CO3)ccc1O [Compound Z114950222]
3	CCCN(S(=O)(=O)c1ccc(C)cc1)S(=O)(=O)c1ccc(Cl)cc1 [Compound Z45422005]
-2	Cc1ccccc1CN(C)S(=O)(=O)C1CCS(=O)(=O)CC1 [Compound Z968740596]
12	CC(C)S(=O)(=O)CCS(=O)(=O)C(C)c1ccc(F)cc1 (stereo not shown) [Compound Z1347351122]
-4	CSc1ncccc1C(=O)OCC(=O)Nc1nc2ccccc2s1 [Compound Z56896575]
1	Cc1ccccc1Nc1nc(N)nc(CSc2nnc(NCc3ccccc3)s2)n1 [Compound Z19326161]
6	O=C(NCc1ccncc1)c1cnn(-c2ccc(Cl)cc2)c1C(F)(F)F [Compound Z94739043]
12	CCOC(=O)c1c(NC(=O)CN2CCN(c3cccc(Cl)c3)CC2)sc(Cc2ccc3c(c2)OCO3)c1C [Compound Z30983122]
-29	CS(=O)(=O)c1ccc(C(=O)NCc2ccc(-n3ccnc3)c(F)c2)cc1 [Compound Z826157056]
12	CC(C)CN(C1CCS(=O)(=O)C1)S(C)(=O)=O (stereo not shown) [Compound Z133987698]
1	CC(=O)c1ccc(N2CCN(CC(=O)c3cc(C)[nH]c3C)CC2)c(F)c1 [Compound Z238811284]
4	Cc1[nH]c(=O)[nH]c(=O)c1CCC(=O)N1CCC(CCc2ccccc2)CC1 [Compound Z219953062]
9	CCN(CC)S(=O)(=O)c1c[nH]c(C(=O)NCc2nc(C)cs2)c1 [Compound Z225896678]
-23	CN1CCCN(c2nc(C(F)(F)F)nc3c2cnn3Cc2ccccc2)CC1 [Compound Z359311942]
-20	CC1(NC(=O)OC(C)(C)C)CCN(C(=O)c2cc3c(cc2O)CCCC3)CC1 [Compound Z1769013356]
1	CC(SCc1nc(N)nc(N(C)C)n1)C(=O)NC1CCCCCC1 (stereo not shown) [Compound Z197454502]
-12	COc1ccc2cc(-c3cc(C(=O)OCC(=O)Nc4cccc(C)c4)c4ccccc4n3)ccc2c1 [Compound Z18792577]
24	COC(=O)c1cc(-c2ccc(OC)cc2)nc2c1c(C)nn2CCC#N [Compound Z328815354]
-1	O=C(Nc1cc(-c2cccc([N+](=O)[O-])c2)sc1C(=O)O)c1ccc2c(c1)OCCO2 [Compound Z204342356]
5	CC(SCc1nc(N)nc(N(C)C)n1)C(=O)Nc1ccc2c(c1)CCC2 (stereo not shown) [Compound Z197454542]
6	O=C1NC(c2ccc(OCc3cn4ccccc4n3)cc2)Nc2ccccc21 (stereo not shown) [Compound Z135163592]
2	CC(C)=CC1C(C(=O)Nc2c(C)cc(C)cc2C)C1(C)C (stereo not shown) [Compound Z169558548]
9	Cc1noc(C)c1COC(=O)CCc1nc(-c2cccs2)no1 [Compound Z114088706]
-6	OCCNc1ncnc2c1c(-c1ccccc1)cn2-c1ccc(F)cc1 [Compound Z57455953]
2	N#CCCn1ncc2c(NCc3ccc4c(c3)OCCO4)ncnc21 [Compound Z990838348]
